In ChEMBL document CHEMBL1201862, “PubChem BioAssay data set” (2004):
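Five compound concentrations were applied to cells in 96-well plates for 48 hours; endpoints were derived by simple linear interpolation of the resulting dose-response curve. Abbreviation: GI50, concentration required for 50% inhibition of growth.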 Calls of active or inactive are those of the source. Rule as the data show it: active = GI50 up to about 1.1 µM and inactive = higher.

Experiments:
Assay in all cases: NCI anticancer screen, dose series, 48 h
[1] = system: SK-MEL-5
[2] = system: ACHN
[3] = system: PC-3
[4] = system: CCRF-CEM
[5] = system: OVCAR-8
[6] = system: MDA-MB-435
[7] = system: A549
[8] = system: Hs-578T
[9] = system: UO-31
[10] = system: SR
[11] = system: NCI-H226
[12] = system: HCC 2998
[13] = system: NCI/ADR-RES
[14] = system: NCI-H522
[15] = system: SNB-75
[16] = system: K562
[17] = system: NCI-H23
[18] = system: OVCAR-3
[19] = system: U-251
[20] = system: COLO 205
[21] = system: SK-MEL-28
[22] = system: SK-MEL-2
[23] = system: HT-29
[24] = system: EKVX
[25] = system: 786-0
[26] = system: IGROV-1
[27] = system: A498
[28] = system: HOP-92
[29] = system: M14
[30] = system: OVCAR-5
[31] = system: SF-539
[32] = system: SNB-19
[33] = system: KM12
[34] = system: SN12C
[35] = system: Malme-3M
[36] = system: MOLT-4
[37] = system: OVCAR-4
[38] = system: TK-10
[39] = system: RXF 393
[40] = system: MDA-N
[41] = system: SK-OV-3
[42] = system: UACC-257
[43] = system: CAKI-1
[44] = system: SW-620
[45] = system: HL-60
[46] = system: SF-295
[47] = system: MDA-MB-231
[48] = system: SF-268
[49] = system: LOX IMVI
[50] = system: UACC-62
[51] = system: MCF7
[52] = system: NCI-H460
[53] = system: DU-145
[54] = system: T47D
[55] = system: BT-549
[56] = system: HOP-62
[57] = system: HCT-116
[58] = system: HCT-15
[59] = system: RPMI-8226

Measured: GI50

CC(C)C(C/C=C1/CC(CO)(COC(=O)C(C)(C)C)OC1=O)C(C)C (configuration not stated)
active: [7] 1.09 µM | [8] 0.735 µM | [16] 0.171 µM | [20] 0.0678 µM | [31] 0.598 µM | [36] 0.514 µM | [45] 0.105 µM | [56] 1.03 µM
16.9 µM: [58]
inactive: [1] 4.52 µM | [2] 5.9 µM | [3] 6.24 µM | [4] 12.1 µM | [5] 19 µM | [6] 8.59 µM | [9] 4.07 µM | [10] 14.9 µM | [11] 7.57 µM | [12] 3.1 µM | [13] 15.7 µM | [14] 12.6 µM | [15] 5.45 µM | [17] 9.51 µM | [18] 15.6 µM | [19] 12.6 µM | [21] 15.9 µM | [22] 15.1 µM | [23] 16.7 µM | [24] 8.17 µM | [25] 3.23 µM | [26] 16.2 µM | [27] 7.67 µM | [28] 10.4 µM | [29] 11.7 µM | [30] 11.6 µM | [32] 12.9 µM | [33] 13.8 µM | [34] 11.1 µM | [35] 3.62 µM | [37] 16.6 µM | [38] 3.72 µM | [39] 15.6 µM | [40] 4.3 µM | [41] 16.7 µM | [42] 16.8 µM | [43] 3.3 µM | [44] 3.31 µM | [46] 2.61 µM | [47] 3.25 µM | [48] 10.8 µM | [49] 12.3 µM | [50] 12.9 µM | [51] 18.4 µM | [52] 7.76 µM | [53] 11.1 µM | [54] 4.52 µM | [55] 13.5 µM | [57] 14.3 µM

CCCN(CCC)C(=S)N/N=C/c1ccccn1
< 0.01 µM: [58]
inactive: [8] 2.96 µM
active: [1] < 0.0173 µM | [2] < 0.01 µM | [3] < 0.01 µM | [4] < 0.01 µM | [5] < 0.01 µM | [6] 0.17 µM | [7] < 0.0138 µM | [9] 0.0239 µM | [10] < 0.01 µM | [12] 0.398 µM | [13] < 0.01 µM | [14] < 0.01 µM | [15] 0.0586 µM | [16] < 0.01 µM | [17] < 0.01 µM | [18] < 0.01 µM | [19] < 0.0138 µM | [20] < 0.0186 µM | [21] 0.17 µM | [22] < 0.0385 µM | [59] < 0.01 µM | [23] < 0.01 µM | [24] 0.046 µM | [25] < 0.01 µM | [26] < 0.01 µM | [27] 0.0372 µM | [28] 0.169 µM | [29] < 0.0125 µM | [30] < 0.0482 µM | [31] 0.118 µM | [32] 0.282 µM | [33] < 0.0139 µM | [34] < 0.0195 µM | [35] 0.0463 µM | [36] < 0.01 µM | [37] < 0.01 µM | [38] 0.0203 µM | [39] 0.0566 µM | [40] 0.0989 µM | [41] < 0.012 µM | [42] < 0.01 µM | [43] 0.0169 µM | [44] < 0.014 µM | [45] < 0.01 µM | [46] 0.0468 µM | [47] < 0.01 µM | [48] < 0.0135 µM | [49] < 0.01 µM | [51] < 0.01 µM | [52] 0.0103 µM | [53] 0.143 µM | [54] < 0.01 µM | [55] 0.341 µM | [56] < 0.01 µM | [57] < 0.01 µM

O=C1C(Cl)=C(N2C(=O)CCCC2=O)C(=O)c2ccccc21
inactive: [1] 16.6 µM | [2] 8.87 µM | [3] 19.6 µM | [4] 4.13 µM | [5] 11.7 µM | [6] 21.8 µM | [7] 22.1 µM | [8] 31.2 µM | [9] 11 µM | [10] 21.5 µM | [11] 59.4 µM | [12] 16.6 µM | [13] 22.6 µM | [14] 1.84 µM | [15] 16.4 µM | [16] 2.7 µM | [17] 17.2 µM | [18] 31.6 µM | [19] 26 µM | [20] 6.37 µM | [21] 13.9 µM | [22] 22.5 µM | [59] 7.45 µM | [23] 15.7 µM | [24] 16.3 µM | [25] 16.9 µM | [26] 15.8 µM | [27] 16.8 µM | [28] 3.46 µM | [29] 19.5 µM | [30] 18 µM | [31] 18.5 µM | [32] > 10 µM | [33] 62.1 µM | [34] 21.2 µM | [36] 17.9 µM | [38] 17.5 µM | [39] 15.7 µM | [40] 17.2 µM | [41] > 100 µM | [42] 19.1 µM | [43] 14 µM | [44] 20.9 µM | [45] 1.7 µM | [46] 82.2 µM | [47] 20 µM | [48] 23.9 µM | [49] 20.6 µM | [50] 19.3 µM | [51] 16.8 µM | [52] 14.6 µM | [53] 16.6 µM | [54] 22.9 µM | [55] 20.3 µM | [56] > 100 µM | [57] 16.8 µM
11.6 µM: [58]
